# Experimental data as given in patent publication US20060189686A1, “Use of a combination of substances to prevent biofouling organisms” (priority 2005, published 2006).
# Legend:
# Barnacle = assay: Cyprid settling rate assay, single compounds and combinations (Example 2); assay type: in vivo; conditions: single substance
# Description: (§1) Settling experiments were performed in order to evaluate the substances effect on settling rate of cyprid larvae. The barnacle cyprid larvae are reared in the laboratory. Approximately 20 cyprids were incubated in seawater in plastic hydrophobic Petri-dishes. Substances subjected for testing were added in different concentration and compared with controls. After one week the amount of settled, frees-swimming and dead larvae in the Petri dishes were counted.
# (§2) Catemine 3 is combined with an effective anti-algae compound according to the invention, such as dichlofluanid (table 3), SeaNine™ (table 4), Irgarol™ (table 5) and Diuron™ (table 6). All the different brands are tested in combination with Catemine 3 for efficacy against both barnacles and algae with the two compounds together or separately. The assays that are be used are the cyprid settling rate assay and the algae germination test.
# Ulva = assay: Algae spore germination test, Ulva; assay type: in vivo; conditions: single substance
# Description: The efficacy of algicides is usually tested by a spore germination test. Algae are collected from the field and grown in the laboratory. […] The water with test compound is then removed and culture medium is added. The spores are left to germinate under fluorescent lamps (50 μMm-2s-1 (PAR)), 16 h light, 8 h darkness, for 7 days in a culture medium, which was changed once a day. […]
# barnacle cyprid larvae = assay: Settling experiments with barnacle cyprid larvae (Example 1); assay type: in vivo; conditions: for Dead (%) / Free swimming (%) / Settled (%): counted after one week
# Description: Barnacle cyprid larvae were incubated in filtered sea water with and without the tested substance.
# as §1
# algae = conditions: target protein lacking in algae; reference (6); cited from earlier work
# Enteromorpha = assay: Algae spore germination test, Enteromorpha; assay type: in vivo; conditions: single substance
# Description: The efficacy of algicides is usually tested by a spore germination test. Algae are collected from the field and grown in the laboratory. After induced sporulation the spores are added to test vials, with the test compound dissolved in pasteurized deep sea water, where they are allowed to settle in darkness for a couple of hours (2-3 h) to give an even distribution of settled spores in the vials. The water with test compound is then removed and culture medium is added. The spores are left to germinate under fluorescent lamps (50 μMm-2s-1 (PAR)), 16 h light, 8 h darkness, for 7 days in a culture medium, which was changed once a day.
# as §2
SMILES,Dead (%) (barnacle cyprid larvae; 100 pM in seawater),Free swimming (%) (barnacle cyprid larvae; 100 pM in seawater),Settled (%) (barnacle cyprid larvae; 100 pM in seawater),Dead (%) (barnacle cyprid larvae; 1 nM in seawater),Free swimming (%) (barnacle cyprid larvae; 1 nM in seawater),Settled (%) (barnacle cyprid larvae; 1 nM in seawater),Dead (%) (barnacle cyprid larvae; 10 nM in seawater),Free swimming (%) (barnacle cyprid larvae; 10 nM in seawater),Settled (%) (barnacle cyprid larvae; 10 nM in seawater),Dead (%) (barnacle cyprid larvae; 100 nM in seawater),Free swimming (%) (barnacle cyprid larvae; 100 nM in seawater),Settled (%) (barnacle cyprid larvae; 100 nM in seawater),Dead (%) (barnacle cyprid larvae; 1 μM in seawater),Free swimming (%) (barnacle cyprid larvae; 1 μM in seawater),Settled (%) (barnacle cyprid larvae; 1 μM in seawater),Barnacle biofouling (% settlement) (Barnacle; 0.1 nM) [%],Barnacle biofouling (% settlement) (Barnacle; 1 nM) [%],Barnacle biofouling (% settlement) (Barnacle; 10 nM) [%],Barnacle biofouling (% settlement) (Barnacle; 100 nM) [%],Ulva biofouling (% survival) (Ulva; 0.1 nM) [%],further results
"CN(C)S(=O)(=O)N(SC(F)(Cl)Cl)c1ccccc1 [Dichlofluanid, N′-dimethyl-N-phenylsulphamide]",–,–,–,–,–,–,–,–,–,–,–,–,–,–,–,–,–,–,–,–,Barnacle biofouling (% settlement) (Barnacle; 0.1 μg/ml): 100%; Barnacle biofouling (% settlement) (Barnacle; 1 μg/ml): 50%; Barnacle biofouling (% settlement) (Barnacle; 10 μg/ml): 25%; Barnacle biofouling (% settlement) (Barnacle; 100 μg/ml): 0%; Ulva biofouling (% survival) (Ulva; 0.1 μg/ml): 100%; Ulva biofouling (% survival) (Ulva; 1 μg/ml): 90%; Ulva biofouling (% survival) (Ulva; 10 μg/ml): 10%; Ulva biofouling (% survival) (Ulva; 100 μg/ml): 0%
"Cc1cccc(C(C)c2c[nH]cn2)c1C (racemic) [Catemine 1, (+/−)-4-[1-(2,3-dimethylphenyl)ethyl]-1H-imidazole]",0,48,52,0,98,2,0,100,0,0,100,0,0,100,0,–,–,–,–,–,Effect on algal growth (algae): no effect of algal growth
"CCCCCCCCn1sc(Cl)c(Cl)c1=O [SeaNine, 4,5-dichloro-2-n-octyl-3(2H)-isothiazolone]",–,–,–,–,–,–,–,–,–,–,–,–,–,–,–,100,50,10,0,100,Ulva biofouling (% survival) (Ulva; 1 nM): 50%; Ulva biofouling (% survival) (Ulva; 10 nM): 10%; Ulva biofouling (% survival) (Ulva; 100 nM): 0%
"CSc1nc(NC2CC2)nc(NC(C)(C)C)n1 [Irgarol, 2-methylthio-4-tert-butylamino-6-cyclopropylamino-s-triazine]",–,–,–,–,–,–,–,–,–,–,–,–,–,–,–,100,100,100,100,–,Enteromorpha biofouling (% survival) (Enteromorpha; 0.1 nM): 100%; Enteromorpha biofouling (% survival) (Enteromorpha; 1 nM): 100%; Enteromorpha biofouling (% survival) (Enteromorpha; 10 nM): 50%; Enteromorpha biofouling (% survival) (Enteromorpha; 100 nM): 0%
"CN(C)C(=O)Nc1ccc(Cl)c(Cl)c1 [Diuron, 3-(3,4-dichlorophenyl)1,1-dimethylurea]",–,–,–,–,–,–,–,–,–,–,–,–,–,–,–,–,–,–,–,–,Barnacle biofouling (% settlement) (Barnacle; 0.1 μM): 100%; Barnacle biofouling (% settlement) (Barnacle; 1 μM): 100%; Barnacle biofouling (% settlement) (Barnacle; 10 μM): 100%; Barnacle biofouling (% settlement) (Barnacle; 100 μM): 100%; Ulva biofouling (% survival) (Ulva; 0.1 μM): 100%; Ulva biofouling (% survival) (Ulva; 1 μM): 90%; Ulva biofouling (% survival) (Ulva; 10 μM): 50%; Ulva biofouling (% survival) (Ulva; 100 μM): 0%
"NC1=N[C@]2(CCc3cccc(Cl)c3C2)CO1 [Catemine 3, (S)-spiro[(1-oxa-2-amino-3-azacyclopent-2-ene)-4,29-(89-chloro-19,29,39,49 tetrahydronaphthalene)]]",5,93,2,3,97,0,0,95,3,0,100,0,0,100,0,10,0,0,0,100,Dead (%) (barnacle cyprid larvae; 10 pM in seawater): 0%; Free swimming (%) (barnacle cyprid larvae; 10 pM in seawater): 96%; Settled (%) (barnacle cyprid larvae; 10 pM in seawater): 4%; Dead (%) (barnacle cyprid larvae; 10 μM in seawater): 2%; Free swimming (%) (barnacle cyprid larvae; 10 μM in seawater): 98%; Settled (%) (barnacle cyprid larvae; 10 μM in seawater): 0%; Dead (%) (barnacle cyprid larvae; 100 μM in seawater): 100%; Free swimming (%) (barnacle cyprid larvae; 100 μM in seawater): 0%; Settled (%) (barnacle cyprid larvae; 100 μM in seawater): 0%; Decrease in concentration needed for settlement inhibition compared to Catemine 1 (barnacle cyprid larvae; compared to Catemine 1): 100-fold decrease in concentration needed for settlement inhibition.; Potency comparison of antisettling activity (barnacle cyprid larvae; comparison of Tables 1 and 2): more potent than Catemine 1; Ulva biofouling (% survival) (Ulva; 1 nM): 100%; Ulva biofouling (% survival) (Ulva; 10 nM): 100%; Ulva biofouling (% survival) (Ulva; 100 nM): 100%; Enteromorpha biofouling (% survival) (Enteromorpha; 0.1 nM): 100%; Enteromorpha biofouling (% survival) (Enteromorpha; 1 nM): 100%; Enteromorpha biofouling (% survival) (Enteromorpha; 10 nM): 100%; Enteromorpha biofouling (% survival) (Enteromorpha; 100 nM): 100%
